Consider six molecules from paper PMC11217349, “Development of Nurr1 agonists from amodiaquine by scaffold hopping and fragment growing” (Communications Chemistry, 2024).

Values joined by “and” are separate entries in the source; they are usually repeats but may differ in a detail not shown here. Equal values may be shown once.

A short description of data set [1]: Parallel artificial membrane permeability assay (PAMPA). The format is in vitro ADME. The following applies: 500 µM donor, pH 7.4, 18 h. The method, then:
Passive lipid membrane diffusion of test compounds was determined using Merck Millipore MultiScreen Filter Plates (0.45 μm pore diameter, hydrophobic PVDF). The filter inserts were coated with 1% L-α-phosphatidylcholine (Fluka Analytical) in n-dodecan. The test compounds were then added to the donor compartment at a final concentration of 500 µM in a phosphate buffer pH 7.4 containing 5% DMSO with a total volume of 150 µL. The acceptor compartment was filled with 300 µL PBS containing 5% DMSO. Additionally, three equilibrium samples were prepared by directly adding the donor solution to the acceptor compartment for the calculation of log Pe values. The filter plates were incubated for 18 h before the test compound concentrations in the acceptor compartments and in the equilibrium, samples were determined by UV absorbance at 320 nm (34), 360 nm (36), 310 nm (41), or 315 nm (42) with external calibration in a 96 well quartz plate on a SpectraMax M2e microplate reader (Molecular Devices). logPe values were calculated according to the formula published by Sugano and colleagues.

Another data set can be described thus: Microsomal stability. It counts as in vitro ADME, rat. To be noted: male, Sprague-Dawley, pH 7.4; rat liver microsomes, 10 µM, LCMS. On the procedure:
To determine microsomal stability, test compounds (10 μM) were incubated in 100 mM potassium phosphate buffer at pH 7.4 (total volume of 100 µL) containing 0.5 mg/mL male rat liver microsomes (Sprague-Dawley, no. M9066, Merck KGaA, Darmstadt) and 1 mM NADPH for 0, 15, 30, or 60 min. At the end of the incubation time, microsomal activity was terminated by the addition of 500 µL MeCN and subsequent centrifugation at 1700 g for 5 min. A reaction mixture containing heat-inactivated microsomes (95 °C, 10 min) was prepared as a control for each compound. 5 µL supernatant of each sample was analyzed and the remaining concentrations of the respective test compounds at each time point were determined by LC-MS/MS on an API-3200-QTrap (Sciex) with an Agilent Technologies 1100 series setup including a binary pump (G1311A), a degasser (G1322A), and a Shimadzu SIL 20 A HT autosampler under the control of Analyst 1.6 (Sciex). A XBridge BEH C18 (3.5 µm, 150 mm×3 mm, Waters, protected with a 0.5 µm frit) stationary phase was used in combination with a gradient method starting with 0.1% formic acid in water (A) and MeCN (B) as mobile phase (A:B = 80:20) for 6 min going to A: B = 50:50 after 8 min. 5 µL of supernatant diluted in mobile phase starting conditions was loaded onto the column, separated at a flow rate of 400 µL/min, and detected and quantified per Area of MRM (multiple reaction monitoring) with the following transitions: m/z 381.797/145.000 (34); m/z 395.125/158.200 (36); m/z 409.822/131.000 (41); m/z 407.838/171.100 (42).

Data set [2] has as its target T1, human Nurr1 (hinge region and ligand binding domain) (Homo sapiens, UniProt P43354).
T1 construct: expressed in transfected cells; host or cells: HEK293T
The data set can be described thus: Gal4-Nurr1 hybrid reporter gene assay. It counts as cell-based. The following applies: mean ± SD, n ≥ 3; for EC50: Gal4-Nurr1 hybrid reporter, HEK293T, read-out: EC50(Nurr1); for max. activation: maximum effect vs. 0.1% DMSO control. On the procedure: Nurr1 modulation was determined in a Gal4 hybrid reporter gene assay in HEK293T cells (German Collection of Microorganisms and Cell Culture GmbH, DSMZ) using pFR-Luc (Stratagene, La Jolla, CA, USA; reporter), pRL-SV40 (Promega, Madison, WI, USA; internal control) and pFA-CMV-hNurr1-LBD[14], coding for the hinge region and ligand binding domain of the canonical isoform of human Nurr1. […] After 24 h, the medium was changed to Opti-MEM without supplements, and cells were transiently transfected using Lipofectamine LTX reagent (Invitrogen, Carlsbad, CA, USA) according to the manufacturer’s protocol. Five hours after transfection, cells were incubated with the test compounds in Opti-MEM supplemented with penicillin (100 U/mL), streptomycin (100 μg/mL), and 0.1% DMSO for 16 h before luciferase activity was measured using the Dual-Glo Luciferase Assay System (Promega) according to the manufacturer’s protocol on a Tecan Spark luminometer (Tecan Deutschland GmbH, Crailsheim, Germany). Firefly luminescence was divided by Renilla luminescence and multiplied by 1000 resulting in relative light units (RLU) to normalize for transfection efficiency and cell growth. Fold activation was obtained by dividing the mean RLU of the test compound by the mean RLU of the untreated control. All samples were tested in at least three biologically independent experiments in duplicates. For dose-response curve fitting and calculation of EC50 values, the equation “[Agonist] vs. response -- Variable slope (four parameters)” was used in GraphPad Prism (version 7.00, GraphPad Software, La Jolla, CA, USA). Selectivity profiling was performed with identical procedures using pFA-CMV-Nur77-LBD[14], pFA-CMV-NOR-1-LBD[14], pFA-CMV-THRα-LBD[51], pFA-CMV-RARα-LBD[52], pFA-CMV-PPARα-LBD[53], pFA-CMV-PPARγ-LBD[53], pFA-CMV-PPARδ-LBD[53], pFA-CMV-LXRα-LBD[54], pFA-CMV-FXR-LBD[55] and pFA-CMV-hRXRα-LBD[56].
For orientation: In a reporter assay the amount or activity of a reporter protein is the signal.

The subject of data set [3] is HBEC-5i human brain endothelial cells. As to the kind of experiment: In vitro blood-brain-barrier model. It counts as in vitro ADME. To be noted: HBEC-5i trans-well, 10 µM, 60 min. On the procedure: Permeation of test compounds through a human brain endothelial cell barrier was evaluated using the Corning Costar 3470 Transwell Plate system (0.4 μm pore diameter with 6.5 mm inserts) and HBEC-5i cells (ATCC, CRL-3245). Filter inserts were coated one day before seeding with 50 μL 0.01% rat-tail collagen type I ([…], Sigma-Aldrich) in PBS. 60,000 HBEC-5i cells in 100 μL HBEC-5i-Medium (DMEM/F12 with 10% FCS and 40 μg/mL ECGS) were seeded after aspiration of the coating-supernatant in each insert with 600 μL HBEC-5i-Medium in each receiver well. After 24 h incubation at 37 °C with 5% CO2, the medium was exchanged to 600 μL T98G cell supernatant in receiver wells and 100 μL fresh HBEC-5i-Medium in inserts. The medium exchange was repeated every second day. On day 7 after seeding, the medium in the receiver wells was replaced by 600 μL Hank's balanced salt solution (HBSS) containing 10 mM HEPES and 0.1% DMSO and 100 μL test compound mixtures (antipyrine and test compound; each at 10 μM) in HBSS containing 10 mM HEPES and 0.1% DMSO were added to inserts. After 60 min incubation, 100 μL samples were taken from the receiver wells and diluted in 400 μL (75%/25% A/B; A=Formic acid 0.1% in water; B = Acetonitrile). Test compound concentrations in the samples were determined by LC-MS/MS on an API-3200-QTrap (Sciex) equipped with an Agilent Technologies 1100 series setup including a binary pump […]), and a Shimadzu […] autosampler under the control of Analyst 1.6 (Sciex). […] B) for 6 min going to (50%:50%) after 8 min. 5 μL of aspirated supernatant diluted in mobile phase starting conditions was loaded onto the column, separated at a flow rate of 400 μL/min, and quantified per Area of MRM (multiple reaction monitoring).

The subject of the next data set is Nurr1. The arrangement: method as in PMID 33289551. To be noted: independent evaluation; cited from earlier work.

T1 sequence (P43354 360-595 limits assumed): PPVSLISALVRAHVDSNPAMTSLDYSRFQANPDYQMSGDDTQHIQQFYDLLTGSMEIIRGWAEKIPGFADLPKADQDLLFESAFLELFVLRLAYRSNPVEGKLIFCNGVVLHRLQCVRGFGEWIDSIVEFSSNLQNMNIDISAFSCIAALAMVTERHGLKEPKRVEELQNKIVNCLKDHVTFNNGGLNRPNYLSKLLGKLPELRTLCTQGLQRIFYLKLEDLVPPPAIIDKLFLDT

By half-life is commonly meant how long it takes for the measured level to halve. One may read the EC50 as the concentration needed to bring the measured effect to its halfway point. For the molecule `COc1ccc(-c2ccc(C(=O)Nc3c(C)nc4c(Cl)cccn34)o2)cc1` [Compound 34], in data set [1], the “logPe (PAMPA)” value was -5.478 and -5.491 and -5.489 and -5.4212 and -5.4577. In addition, in “Microsomal stability”, the half-life at 10 µM was determined as 18 ± 2 min. In data set [2], the EC50 came to 160 ± 60 nM and the max. activation amounted to 1.7 ± 0.1 fold.
Take `Cc1nc2c(Cl)cccn2c1NC(=O)c1ccc(-c2ccc(OC(C)C)cc2)o1` [Compound 41]: in data set [1], the “logPe (PAMPA)” value was -5.684 and -5.708 and -5.674 and -5.7032 and -5.723 and -5.7183. Besides, the half-life at 10 µM in “Microsomal stability” was 42 ± 5 min. Moreover, in data set [2], the concentration for a half-maximal effect (EC50) was 120 ± 30 nM and the max. activation is listed as 2.1 ± 0.2 fold.
Turning to `Cc1nc2c(Cl)cccn2c1NC(=O)c1ccc(-c2ccc(OC3CC3)cc2)o1` [Compound 42, N-(8-Chloro-2-methylimidazo[1,2-a]pyridin-3-yl)-5-(4-cyclopropoxyphenyl)furan-2-carboxamide], the “logPe (PAMPA)” value in data set [1] was -5.857 and -5.822 and -5.789 and -5.846 and -5.806. For the same molecule, in the data set “Microsomal stability”, the half-life at 10 µM came out at 78 ± 7 min. Moreover, the “logPe (BBB)” value in data set [3] is -5.049 and -5.059 and -4.946 and -5.046 and -4.96 and -4.965. Also, in data set [2], the EC50 worked out at 120 ± 60 nM and the max. activation worked out at 1.5 ± 0.2 fold.
With `O=C(Nc1ccccc1)c1cn2cc(-c3ccccn3)ccc2n1` [SR24237], in the data set on Nurr1, the “binding to Nurr1” value was “no evidence for binding”.
As for `Cc1cc(=O)n(-c2ccccc2)n1C` [antipyrine, reference compound], the “logPe (BBB)” value in data set [3] is -4.6402 and -4.7739 and -4.62 and -4.578 and -4.647.
`CC(C)NCC(O)COc1cccc2ccccc12` (stereo not shown) [propranolol, reference compound]: the “logPe (PAMPA)” value in data set [1] was -5.096 and -5.109 and -5.101 and -5.087 and -5.042 and -5.07.
